From ChEMBL document CHEMBL1201862, “PubChem BioAssay data set” (2004)
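Tested at 5 concentrations; 48 h exposure; 96-well plates; endpoints linearly interpolated, else capped at highest concentration. Abbreviation: GI50, concentration required for 50% inhibition of growth.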 Active and inactive are the calls of the source. Rule as the data show it: active = GI50 up to about 1.1 µM and inactive = higher.

How the values were obtained:
Test in all cases: NCI-60 cell line screen, 48 h
[1] = system: 786-0
[2] = system: A498
[3] = system: CAKI-1
[4] = system: CCRF-CEM
[5] = system: COLO 205
[6] = system: EKVX
[7] = system: HCC 2998
[8] = system: HCT-116
[9] = system: HL-60
[10] = system: HOP-62
[11] = system: HOP-92
[12] = system: HT-29
[13] = system: IGROV-1
[14] = system: K562
[15] = system: KM-20L2
[16] = system: KM12
[17] = system: M14
[18] = system: MOLT-4
[19] = system: NCI-H460
[20] = system: NCI-H522
[21] = system: OVCAR-3
[22] = system: OVCAR-4
[23] = system: OVCAR-5
[24] = system: OVCAR-8
[25] = system: RPMI-8226
[26] = system: RXF 393
[27] = system: SF-295
[28] = system: SK-MEL-28
[29] = system: SK-MEL-2
[30] = system: SK-MEL-5
[31] = system: SK-OV-3
[32] = system: SNB-19
[33] = system: SNB-75
[34] = system: SW-620
[35] = system: TK-10
[36] = system: U-251
[37] = system: UACC-257
[38] = system: UACC-62
[39] = system: UO-31
[40] = system: A549
[41] = system: ACHN
[42] = system: BT-549
[43] = system: DU-145
[44] = system: HCT-15
[45] = system: Hs-578T
[46] = system: LOX IMVI
[47] = system: MCF7
[48] = system: MDA-MB-231
[49] = system: MDA-MB-435
[50] = system: MDA-N
[51] = system: Malme-3M
[52] = system: NCI-H226
[53] = system: NCI-H23
[54] = system: NCI/ADR-RES
[55] = system: PC-3
[56] = system: SF-268
[57] = system: SF-539
[58] = system: SN12C
[59] = system: SR
[60] = system: T47D

Measured: GI50

c1ccncc1
inactive: [1] > 100000 nM | [2] > 100000 nM | [3] > 100000 nM | [4] > 100000 nM | [5] > 100000 nM | [6] > 100000 nM | [7] > 100000 nM | [8] > 100000 nM | [9] > 100000 nM | [10] > 100000 nM | [11] > 100000 nM | [12] > 100000 nM | [13] > 100000 nM | [14] > 100000 nM | [15] > 100000 nM | [16] > 100000 nM | [17] > 100000 nM | [18] > 100000 nM | [19] > 100000 nM | [20] > 100000 nM | [21] > 100000 nM | [22] > 100000 nM | [23] > 100000 nM | [24] > 100000 nM | [25] > 100000 nM | [26] > 100000 nM | [27] > 100000 nM | [28] > 100000 nM | [29] > 100000 nM | [30] > 100000 nM | [31] > 100000 nM | [32] > 100000 nM | [33] > 100000 nM | [34] > 100000 nM | [35] > 100000 nM | [36] > 100000 nM | [37] > 100000 nM | [38] > 100000 nM | [39] > 100000 nM

Cc1cccc2c(NCCCN(C)C)c3c([N+](=O)[O-])ccc(C)c3nc12
43.5 nM: [44]
inactive: [28] 2320 nM
active: [1] 68.9 nM | [2] < 10 nM | [40] 101 nM | [41] 90.8 nM | [42] 256 nM | [3] 200 nM | [4] 423 nM | [5] 80.2 nM | [43] 88.7 nM | [6] 85.5 nM | [7] < 25.5 nM | [8] 100 nM | [9] 203 nM | [10] 47 nM | [11] 91.6 nM | [12] 80.9 nM | [45] 439 nM | [13] 57.4 nM | [14] 115 nM | [16] 103 nM | [46] 197 nM | [17] 132 nM | [47] < 16.1 nM | [48] 217 nM | [49] 191 nM | [50] 196 nM | [18] 17.8 nM | [51] 175 nM | [52] 194 nM | [53] 34 nM | [19] < 24.1 nM | [20] < 32.6 nM | [54] 337 nM | [21] 109 nM | [22] 62.8 nM | [23] 264 nM | [24] 206 nM | [55] 49.4 nM | [25] 190 nM | [26] 64.7 nM | [56] 198 nM | [27] 68.9 nM | [57] 263 nM | [29] 132 nM | [30] 82 nM | [31] 278 nM | [58] 221 nM | [32] 192 nM | [33] 186 nM | [59] < 15.4 nM | [34] 65.9 nM | [60] 87.9 nM | [35] 252 nM | [36] 147 nM | [37] 192 nM | [38] 144 nM | [39] 216 nM
